The molecules below were run against T1, Menin MLL 4-43 (Homo sapiens, UniProt O00255) (assay: Fluorescence polarization (FP) competition assay of the menin-MLL interaction). Settings: fluorescence polarization competition with fluorescein-labeled MLL peptide.
T1 sequence (O00255 1-610): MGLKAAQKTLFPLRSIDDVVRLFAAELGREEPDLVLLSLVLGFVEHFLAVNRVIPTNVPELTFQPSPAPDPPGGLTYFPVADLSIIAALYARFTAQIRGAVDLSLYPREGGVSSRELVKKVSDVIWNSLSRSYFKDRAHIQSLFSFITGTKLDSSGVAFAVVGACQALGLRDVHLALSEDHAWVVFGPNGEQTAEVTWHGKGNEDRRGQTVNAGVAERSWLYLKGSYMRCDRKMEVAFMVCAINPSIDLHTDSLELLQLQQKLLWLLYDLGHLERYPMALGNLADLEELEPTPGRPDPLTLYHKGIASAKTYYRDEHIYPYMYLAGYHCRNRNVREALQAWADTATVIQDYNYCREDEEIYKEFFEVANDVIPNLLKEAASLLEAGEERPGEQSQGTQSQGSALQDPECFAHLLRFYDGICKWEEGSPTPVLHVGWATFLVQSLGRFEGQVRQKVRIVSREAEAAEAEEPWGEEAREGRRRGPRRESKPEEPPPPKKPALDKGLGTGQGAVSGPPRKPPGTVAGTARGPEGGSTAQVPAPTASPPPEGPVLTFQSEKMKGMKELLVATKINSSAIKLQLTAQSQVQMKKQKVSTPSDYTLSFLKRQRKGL
Format: binding
Source text: This example illustrates an assay effective in monitoring the binding of MLL to menin. […] A fluorescein-labeled peptide containing the high affinity menin binding motif found in MLL was produced according to Yokoyama et al. (Cell, 2005, 123(2): 207-218), herein incorporated by reference in its entirety. Binding of the labeled peptide (1.7 kDa) to the much larger menin (˜67 kDa) is accompanied by a significant change in the rotational correlation time of the fluorophore, resulting in a substantial increase in the fluorescence polarization and fluorescence anisotropy (excitation at 500 nm, emission at 525 nm).

| IC50 [nM] | SMILES |
| --- | --- |
| < 50 | CNc1nc(N2CCC3(CCN(Cc4ccc5c(cc(C#N)n5C[C@H](C)N5CCN(S(=O)(=O)NC)CC5)c4C)C3)C2)c2cc(CC(F)(F)F)sc2n1 (stereo partly shown) [Compound 5] |
| 50 to 250 | CCC(=O)NC12CC(Cn3c(C#N)cc4c(C)c(CN5CCC6(CCN(c7nc(NC)nc8sc(CC(F)(F)F)cc78)C6)C5)ccc43)(C1)C2 (stereo not shown) [Compound 11] |
| < 50 | CNc1nc(N2CCC3(CCN(C[C@H]4CC[C@H](NS(C)(=O)=O)CC4)C3)C2)c2cc(CC(F)(F)F)sc2n1 (stereo partly shown) [Compound 14] |
| < 50 | Cc1nc(N2CCC3(CCN(Cc4ccc5c(cc(C#N)n5C[C@H](C)N5CCN(S(C)(=O)=O)CC5)c4C)C3)C2)c2cc(CC(F)(F)F)sc2n1 (stereo partly shown) [Compound 17] |
| < 50 | Cc1nc(N2CCC3(CCN(Cc4ccc5c(cc(C#N)n5C[C@@H]5CNC(=O)CO5)c4C)C3)C2)c2cc(CC(F)(F)F)sc2n1 (stereo partly shown) [Compound 21] |
| 250 to 1000 | Cc1nc(N2CCC3(CCN(Cc4ccc(NS(C)(=O)=O)cc4)C3)C2)c2cc(CC(F)(F)F)sc2n1 (stereo not shown) [Compound 25] |
| 250 to 1000 | Cc1nc(N2CCC3(CCN(Cc4ccc5c(c4)[nH]c(=O)n5CCO)C3)C2)c2cc(CC(F)(F)F)sc2n1 (stereo not shown) [Compound 29] |
| > 1000 | Cc1nc(N2CCC3(CCN(Cc4ccc5[nH]c(C#N)cc5c4C)C3)C2)c2cc(CC(F)(F)F)sc2n1 (stereo not shown) [Compound 41] |
| 250 to 1000 | CNc1nc(N2CCC3(CCN(Cc4ccc5[nH]c(C#N)cc5c4C)C3)C2)c2cc(CC(F)(F)F)sc2n1 (stereo not shown) [Compound 42] |
| < 50 | CNc1nc(N2CCC3(CCN(Cc4ccc5c(cc(C#N)n5C[C@H](C)N5CCC(S(=O)(=O)NC)CC5)c4C)C3)C2)c2cc(CC(F)(F)F)sc2n1 (stereo partly shown) [Compound 68] |
| < 50 | CNS(=O)(=O)C1CCN([C@@H](C)Cn2c(C#N)cc3c(C)c(CN4CCC5(CCN(c6ncnc7sc(CC(F)(F)F)cc67)C5)C4)ccc32)CC1 (stereo partly shown) [Compound 70] |
| < 50 | CNc1nc(N2CCC3(CCN(Cc4ccc5c(cc(C#N)n5C[C@H](C)N5CCC(S(C)(=O)=O)CC5)c4C)C3)C2)c2cc(CC(F)(F)F)sc2n1 (stereo partly shown) [Compound 75] |
| 50 to 250 | CCS(=O)(=O)Nc1ccc(CN2CCC3(CCN(c4nc(NC)nc5sc(CC(F)(F)F)cc45)C3)C2)cc1 (stereo not shown) [Compound 126] |
| 250 to 1000 | CNc1nc(N2CC3CN(CCc4ccc5[nH]ccc5c4)CC3C2)c2cc(CC(F)(F)F)sc2n1 (stereo not shown) [Compound 139] |
| > 1000 | CNc1nc(N2CC3CCN(CCc4ccccc4)C3C2)c2cc(CC(F)(F)F)sc2n1 (stereo not shown) [Compound 142] |
| > 1000 | CNc1nc(N2CCC3CCN(Cc4ccccc4)C3C2)c2cc(CC(F)(F)F)sc2n1 (stereo not shown) [Compound 145] |
| > 1000 | CNc1nc(N2CC3CN(Cc4ccc(NS(C)(=O)=O)cc4)CC3C2)c2cc(CC(F)(F)F)sc2n1 (stereo not shown) [Compound 147] |
| > 1000 | Cc1nc(N2CC3CN(Cc4ccc5[nH]c(C#N)cc5c4C)CC3C2)c2cc(CC(F)(F)F)sc2n1 (stereo not shown) [Compound 149] |
| > 1000 | Cc1c(CN2CC3CN(c4ncnc5sc(CC(F)(F)F)cc45)CC3C2)ccc2[nH]c(C#N)cc12 (stereo not shown) [Compound 150] |
| > 1000 | CNc1nc(N2CC3CN(Cc4ccc5c(cc(C#N)n5CCN5CCN(S(C)(=O)=O)CC5)c4C)CC3C2)c2cc(CC(F)(F)F)sc2n1 (stereo not shown) [Compound 151] |
| > 1000 | CNc1nc(N2CCC3CN(Cc4ccc5[nH]c(C#N)cc5c4C)CC3C2)c2cc(CC(F)(F)F)sc2n1 (stereo not shown) [Compound 153] |
| 250 to 1000 | CNc1nc(N2CCC3CN(CCc4ccc5[nH]ccc5c4)CC3C2)c2cc(CC(F)(F)F)sc2n1 (stereo not shown) [Compound 155] |

Second part, the molecule before the results:

| SMILES | IC50 [nM] |
| --- | --- |
| CNS(=O)(=O)N1CCN([C@@H](C)Cn2c(C#N)cc3c(C)c(CN4CCC5(CCN(c6nc(C)nc7sc(CC(F)(F)F)cc67)C5)C4)ccc32)CC1 (stereo partly drawn) [Compound 1, 4-((2S)-1-(2-cyano-4-methyl-5-((7-(2-methyl-6-(2,2,2-trifluoroethyl)thieno[2,3-d]pyrimidin-4-yl)-2,7-diazaspiro[4.4]nonan-2-yl)methyl)-1H-indol-1-yl)propan-2-yl)-N-methylpiperazine-1-sulfonamide] | 50 to 250 |
| CCC(=O)NC12CC(Cn3c(C#N)cc4c(C)c(CN5CCC6(CCN(c7nc(C)nc8sc(CC(F)(F)F)cc78)C6)C5)ccc43)(C1)C2 (stereo not shown) [Compound 3, N-(3-((2-cyano-4-methyl-5-((7-(2-methyl-6-(2,2,2-trifluoroethyl)thieno[2,3-d]pyrimidin-4-yl)-2,7-diazaspiro[4.4]nonan-2-yl)methyl)-1H-indol-1-yl)methyl)bicyclo[1.1.1]pentan-1-yl)propionamide] | 250 to 1000 |
| Cc1nc(N2CCC3(CCN(Cc4ccc5c(cc(C#N)n5C[C@H](C)N5CCN(S(C)(=O)=O)CC5)c4C)C3)C2)c2cc(CC(F)(F)F)sc2n1 (stereo partly shown) [Compound 8] | 50 to 250 |
| CNc1nc(N2CCC3(CCN(Cc4ccc5c(cc(C#N)n5C[C@H](C)N5CCN(S(C)(=O)=O)CC5)c4C)C3)C2)c2cc(CC(F)(F)F)sc2n1 (stereo partly shown) [Compound 9] | 50 to 250 |
| CNc1nc(N2CCC3(CCN(Cc4ccc5c(cc(C#N)n5C[C@@H]5CNC(=O)CO5)c4C)C3)C2)c2cc(CC(F)(F)F)sc2n1 (stereo partly shown) [Compound 22] | < 50 |
| CNc1nc(N2CCC3(CCN(Cc4ccc(NS(C)(=O)=O)cc4)C3)C2)c2cc(CC(F)(F)F)sc2n1 (stereo not shown) [Compound 26] | 50 to 250 |
| CNc1nc(N2CCC3(CCN(Cc4ccc5c(c4)[nH]c(=O)n5CCO)C3)C2)c2cc(CC(F)(F)F)sc2n1 (stereo not shown) [Compound 30] | < 50 |
| Cc1c(CN2CCC3(CCN(c4ncnc5sc(CC(F)(F)F)cc45)C3)C2)ccc2c1cc(C#N)n2C[C@H](C)N1CCN(S(C)(=O)=O)CC1 (stereo partly shown) [Compound 43] | < 50 |
| Cc1c(CN2CCC3(CCN(c4ncnc5sc(CC(F)(F)F)cc45)C3)C2)ccc2c1cc(C#N)n2C[C@@H]1CNC(=O)OC1 (stereo partly shown) [Compound 44] | < 50 |
| CNS(=O)(=O)N1CCN([C@@H](C)Cn2c(C#N)cc3c(C)c(CN4CCC5(CCN(c6ncnc7sc(CC(F)(F)F)cc67)C5)C4)ccc32)CC1 (stereo partly shown) [Compound 45] | < 50 |
| CNc1nc(N2CCC3(CCN(Cc4ccc5c(cc(C#N)n5CCN5CCN(S(=O)(=O)NC)CC5)c4C)C3)C2)c2cc(CC(F)(F)F)sc2n1 (stereo not shown) [Compound 46] | 50 to 250 |
| CNS(=O)(=O)C1CCN([C@@H](C)Cn2c(C#N)cc3c(C)c(CN4CCC5(CCN(c6nc(C)nc7sc(CC(F)(F)F)cc67)C5)C4)ccc32)CC1 (stereo partly shown) [Compound 69] | < 50 |
| CNc1nc(N2CCC3(CCN(Cc4ccc5c(cc(C#N)n5CCN5CCC(S(C)(=O)=O)CC5)c4C)C3)C2)c2cc(CC(F)(F)F)sc2n1 (stereo not shown) [Compound 77] | < 50 |
| CNc1nc(N2CCC3(CCN(Cc4ccc(NS(=O)(=O)NC)cc4)C3)C2)c2cc(CC(F)(F)F)sc2n1 (stereo not shown) [Compound 96] | > 1000 |
| Cc1c(CN2CCC3(CCN(c4nc(N)nc5sc(CC(F)(F)F)cc45)C3)C2)ccc2[nH]c(C#N)cc12 (stereo not shown) [Compound 125] | > 1000 |
| CNc1nc(N2CC3CN(Cc4ccc5[nH]c(C#N)cc5c4C)CC3C2)c2cc(CC(F)(F)F)sc2n1 (stereo not shown) [Compound 127] | 50 to 250 |
| CNc1nc(N2CC3CN(CCc4ccccc4)CC3C2)c2cc(CC(F)(F)F)sc2n1 (stereo not shown) [Compound 128] | > 1000 |
| CNc1nc(N2CC3CCN(Cc4ccc5[nH]c(C#N)cc5c4C)C3C2)c2cc(CC(F)(F)F)sc2n1 (stereo not shown) [Compound 129] | > 1000 |
| CNc1nc(N2CC3CCN(Cc4ccc5[nH]c(=O)[nH]c5c4)C3C2)c2cc(CC(F)(F)F)sc2n1 (stereo not shown) [Compound 140] | > 1000 |
| CNc1nc(N2CC3CCN(Cc4ccccc4)C3C2)c2cc(CC(F)(F)F)sc2n1 (stereo not shown) [Compound 141] | > 1000 |
| CNc1nc(N2CCC3CCN(Cc4ccc5[nH]c(C#N)cc5c4C)C3C2)c2cc(CC(F)(F)F)sc2n1 (stereo not shown) [Compound 143] | > 1000 |
| CNc1nc(N2CCC3CCN(Cc4ccc5[nH]c(=O)[nH]c5c4)C3C2)c2cc(CC(F)(F)F)sc2n1 (stereo not shown) [Compound 144] | > 1000 |
| CNc1nc(N2CC3CN(Cc4ccc(C#N)cc4)CC3C2)c2cc(CC(F)(F)F)sc2n1 (stereo not shown) [Compound 146] | > 1000 |
| CNc1nc(N2CC3CN(Cc4ccc(NC(C)=O)cc4)CC3C2)c2cc(CC(F)(F)F)sc2n1 (stereo not shown) [Compound 148] | > 1000 |
| CNc1nc(N2CCC3CN(Cc4ccccc4)CC3C2)c2cc(CC(F)(F)F)sc2n1 (stereo not shown) [Compound 152] | 250 to 1000 |
| CNc1nc(N2CCC3CN(CCc4ccccc4)CC3C2)c2cc(CC(F)(F)F)sc2n1 (stereo not shown) [Compound 154] | > 1000 |
| CNc1nc(N2CC3CCN(Cc4ccccc4)CC3C2)c2cc(CC(F)(F)F)sc2n1 (stereo not shown) [Compound 156] | > 1000 |
| CNc1nc(N2CC3CCN(Cc4ccc5[nH]c(C#N)cc5c4C)CC3C2)c2cc(CC(F)(F)F)sc2n1 (stereo not shown) [Compound 157] | > 1000 |
| CNc1nc(N2CC3CCN(CCc4ccccc4)CC3C2)c2cc(CC(F)(F)F)sc2n1 (stereo not shown) [Compound 158] | > 1000 |
| CNc1nc(N2CC3CCN(CCc4ccc5[nH]ccc5c4)CC3C2)c2cc(CC(F)(F)F)sc2n1 (stereo not shown) [Compound 159] | > 1000 |

From US11649251B2, “Substituted inhibitors of menin-MLL and methods of use” (Kura Oncology, Inc., priority 2017, dated 2023)
